{"source": "paper PMC3011871", "about": "“Purification and Biochemical Characterization of a Specific β-Glucosidase from the Digestive Fluid of Larvae of the Palm Weevil, Rhynchophorus palmarum” (Journal of Insect Science, 2009)", "key": {"[1]": {"tested_on": "T1, β-glucosidase from the digestive fluid of Rhynchophorus palmarum larvae", "T1 construct": "gene cellobiase; native, purified from larval digestive fluid (Abidjan, Côte d'Ivoire); monomer, 58 kDa SDS-PAGE, 60 kDa gel filtration", "test": "glucose release by glucose oxidase-peroxidase, Lineweaver-Burk", "format": "biochemical", "settings": "100 mM acetate buffer pH 5.0, 37°C", "text": "glucose release by glucose oxidase-peroxidase, Lineweaver-Burk on β-glucosidase from the digestive fluid of Rhynchophorus palmarum larvae"}, "[2]": {"tested_on": "T1, β-glucosidase from the digestive fluid of Rhynchophorus palmarum larvae", "test": "p-nitrophenol release at […] nm, Lineweaver-Burk", "format": "biochemical", "settings": "100 mM acetate buffer pH 5.0, 37°C"}}}
{"smiles": "OC[C@H]1O[C@@H](O[C@H]2[C@H](O)[C@@H](O)C(O)O[C@@H]2CO)[C@H](O)[C@@H](O)[C@@H]1O", "note": "(some centres unmarked) [cellobiose]", "values": [{"measurement": "Km", "setting": "[1]", "result": 310, "unit": "µM"}]}
{"smiles": "O=[N+]([O-])c1ccc(O[C@@H]2O[C@H](CO)[C@@H](O)[C@H](O)[C@H]2O)cc1", "note": "[p-nitrophenyl-β-D-glucopyranoside]", "values": [{"measurement": "Km", "setting": "[2]", "result": 250, "unit": "µM"}]}
